The values that follow are results of earlier work, collected in article PMC10322880 (Communications Biology, 2023).

Each structure is given as a SMILES string.

This data set deals with SARS-CoV-2. To be noted: phase 2/3 clinical trial.

`Cn1cnc(Cn2c(=O)[nH]/c(=N\c3cc4cn(C)nc4cc3Cl)n(Cc3cc(F)c(F)cc3F)c2=O)n1` [ensitrelvir]: the SARS-CoV-2 clearance result is on record as “rapid SARS-CoV-2 clearance” and the tolerability entry was “well tolerated”.
